Experimental data published in patent US7786141B2 (Vertex Pharmaceuticals Incorporated, priority 2004, dated 2010).

Experiments:
M1 muscarinic receptor = molecular target: T1, M1 muscarinic receptor (Homo sapiens, UniProt P11229); assay: Functional mobilization of intracellular calcium (FLIPR) in M1-CHO cells; type: cell-based; conditions: Table 4; for M1 Activity: M1 receptor, calcium mobilization (FLIPR)
T1 construct: expressed in transfected cells; host or cells: CHO (M1-CHO)
T1 sequence (P11229 1-460): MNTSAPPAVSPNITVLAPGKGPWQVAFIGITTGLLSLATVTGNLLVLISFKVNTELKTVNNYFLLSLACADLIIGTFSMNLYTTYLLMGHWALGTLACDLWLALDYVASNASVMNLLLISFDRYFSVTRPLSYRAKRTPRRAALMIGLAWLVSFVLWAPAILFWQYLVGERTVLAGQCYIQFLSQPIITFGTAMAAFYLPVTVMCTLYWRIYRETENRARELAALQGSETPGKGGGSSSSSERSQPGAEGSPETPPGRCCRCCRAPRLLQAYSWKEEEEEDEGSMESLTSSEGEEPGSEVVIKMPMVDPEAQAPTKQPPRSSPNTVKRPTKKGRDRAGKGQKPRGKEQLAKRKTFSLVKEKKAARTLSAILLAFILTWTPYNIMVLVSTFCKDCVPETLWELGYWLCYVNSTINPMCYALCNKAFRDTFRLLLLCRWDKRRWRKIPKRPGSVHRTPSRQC
Summary of the method: (§1)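 CHO cells stably expressing human M1 or M4 receptor were loaded with Fluo-3 AM (or Calcium 3 dye) in Hepes-buffered saline, pH 7.4, with 1 mM probenecid, 0.5% final DMSO. Agonist mode: compound added directly; antagonist mode: 15 min preincubation before carbachol at EC80. FLIPR fluorescence recorded 60 sec.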

M4 muscarinic receptor = molecular target: T2, M4 muscarinic receptor (Homo sapiens, UniProt P08173); assay: Functional mobilization of intracellular calcium (FLIPR) in M4-CHO cells; type: cell-based; conditions: Table 4; for M4 Activity: M4 receptor, calcium mobilization (FLIPR)
T2 construct: expressed in transfected cells; host or cells: CHO (M4-CHO)
T2 sequence (P08173 1-479): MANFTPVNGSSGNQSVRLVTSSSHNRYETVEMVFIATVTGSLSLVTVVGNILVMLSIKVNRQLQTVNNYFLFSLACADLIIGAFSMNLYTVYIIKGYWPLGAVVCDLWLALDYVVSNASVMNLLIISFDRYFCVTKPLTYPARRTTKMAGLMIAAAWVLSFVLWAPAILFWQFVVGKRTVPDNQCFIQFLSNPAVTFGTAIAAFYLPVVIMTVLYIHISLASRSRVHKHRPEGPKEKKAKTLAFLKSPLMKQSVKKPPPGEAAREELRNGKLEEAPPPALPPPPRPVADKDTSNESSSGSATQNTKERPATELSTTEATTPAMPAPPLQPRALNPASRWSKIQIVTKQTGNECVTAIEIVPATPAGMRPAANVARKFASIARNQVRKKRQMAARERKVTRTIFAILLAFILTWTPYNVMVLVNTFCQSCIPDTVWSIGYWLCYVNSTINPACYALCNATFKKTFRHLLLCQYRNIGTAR
Summary of the method: as §1

[1] = 100% efficacy is the maximum response obtained with the Carbachol control

SMILES | Emax (M1 muscarinic receptor; [1]) | M1 Activity (M1 muscarinic receptor) | Emax (M4 muscarinic receptor; [1]) | M4 Activity (M4 muscarinic receptor) | M1 Efficacy (M1 muscarinic receptor; [1]) | M4 Efficacy (M4 muscarinic receptor; [1])
Cc1ccc2c(c1)C1(CCN(C3CC4CCC3C4)CC1)CN2C(=O)c1ccccn1 (stereo not drawn) [compound 813] | 25 to 100% | x (activity was measured to be greater than 5.0 μM) | < 25% | x (activity was measured to be greater than 5.0 μM) | – | –
COc1ccc(F)cc1N1CCC(N2CCC3(CC2)CN(C(=O)N(C)C)c2ccc(F)cc23)CC1 [compound 814] | 25 to 100% | x (activity was measured to be greater than 5.0 μM) | 25 to 100% | xx (activity was measured to be between 2.0 μM and 5.0 μM) | – | –
CN(C)C(=O)CN1CC2(CCN(C[C@@H]3C[C@H]4C=CC3C4)CC2)c2cc(F)ccc21 [compound 815] | 25 to 100% | xx (activity was measured to be between 2.0 μM and 5.0 μM) | 25 to 100% | xxx (activity was measured to be less than 2.0 μM) | – | –
C#CCOC(=O)N1CC[C@@H](CN2CCC3(CC2)CN(C(C)=O)c2ccccc23)C1 [compound 816] | > 100% | xxx (activity was measured to be less than 2.0 μM) | > 100% | xxx (activity was measured to be less than 2.0 μM) | – | –
CC1=C(CCN2CCC3(CC2)C[C@H](NC(=O)c2ccoc2)c2ccccc23)C(C)(C)CCC1 [compound 817] | < 25% | x (activity was measured to be greater than 5.0 μM) | < 25% | x (activity was measured to be greater than 5.0 μM) | – | –
CC(=O)N[C@H]1CC2(CCN(CC3CCN(C(=O)OC4CCC4)CC3)CC2)c2ccccc21 [compound 818] | < 25% | x (activity was measured to be greater than 5.0 μM) | < 25% | x (activity was measured to be greater than 5.0 μM) | – | –
CC(=O)N[C@H]1CCC2(CCN(CCC3CCCN(C(=O)OC(C)(C)C)C3)CC2)c2ccccc21 (stereo partly drawn) [compound 819] | 25 to 100% | xxx (activity was measured to be less than 2.0 μM) | < 25% | x (activity was measured to be greater than 5.0 μM) | – | –
CCCC#CCOC(=O)N1C2CCC1CC(N1CCC3(CC1)CN(C(C)=O)c1ccccc13)C2 (stereo not drawn) [compound 820] | 25 to 100% | xxx (activity was measured to be less than 2.0 μM) | 25 to 100% | xxx (activity was measured to be less than 2.0 μM) | – | –
CC(=O)N[C@H]1CC2(CCN([C@@H]3CC4CCC3C4)C2)c2ccc(F)cc21 (stereo partly drawn) [compound 821] | 25 to 100% | x (activity was measured to be greater than 5.0 μM) | < 25% | x (activity was measured to be greater than 5.0 μM) | – | –
CCc1cncc(N2CCC(N3CCC4(CC3)CN(C(C)=O)c3ccccc34)CC2)n1 [compound 822] | 25 to 100% | xxx (activity was measured to be less than 2.0 μM) | 25 to 100% | xxx (activity was measured to be less than 2.0 μM) | – | –
CC(=O)N[C@H]1CC2(CCN(C3CCCCCC3)C2)c2ccc(F)cc21 (stereo partly drawn) [compound 823] | 25 to 100% | xx (activity was measured to be between 2.0 μM and 5.0 μM) | 25 to 100% | xx (activity was measured to be between 2.0 μM and 5.0 μM) | – | –
CC(=O)N1CC2(CCN(C3CCN(C(=O)O[C@H]4CCOC4)CC3)CC2)c2ccccc21 [compound 824] | 25 to 100% | x (activity was measured to be greater than 5.0 μM) | < 25% | x (activity was measured to be greater than 5.0 μM) | – | –
CCC#CCOC(=O)N1CCC(N2CCC3(CC2)CN(C(C)=O)c2cccc(C)c23)CC1 [compound 825] | 25 to 100% | xxx (activity was measured to be less than 2.0 μM) | < 25% | x (activity was measured to be greater than 5.0 μM) | – | –
O=C1CC2(CCN(CC3CC4C=CC3C4)CC2)c2cc(Cl)ccc21 (stereo not drawn) [compound 826] | 25 to 100% | xxx (activity was measured to be less than 2.0 μM) | 25 to 100% | xxx (activity was measured to be less than 2.0 μM) | – | –
CCOC(=O)N1C2CCC1CC(N1CCC3(CC1)CN(C(C)=O)c1c(C)cc(C)cc13)C2 (stereo not drawn) [compound 827] | 25 to 100% | xxx (activity was measured to be less than 2.0 μM) | 25 to 100% | xxx (activity was measured to be less than 2.0 μM) | – | –
CC(=O)NC1CCC2(CCN(CCC3CCCN(C(=O)C(C)(C)C)C3)CC2)c2ccccc21 (stereo not drawn) [compound 828] | 25 to 100% | xxx (activity was measured to be less than 2.0 μM) | < 25% | x (activity was measured to be greater than 5.0 μM) | – | –
CC(=O)N1CC2(CCN(C3CCN(C(=O)OCC(F)F)CC3)CC2)c2cc(C)ccc21 [compound 829] | 25 to 100% | xxx (activity was measured to be less than 2.0 μM) | 25 to 100% | xxx (activity was measured to be less than 2.0 μM) | – | –
CC(=O)N[C@H]1CC2(CCN(C3CCCC3C)CC2)c2ccccc21 (stereo partly drawn) [compound 830] | 25 to 100% | x (activity was measured to be greater than 5.0 μM) | 25 to 100% | xx (activity was measured to be between 2.0 μM and 5.0 μM) | – | –
CC(=O)N[C@H]1CCC2(CCN(CCC3CCN(C(C)=O)CC3)CC2)c2ccccc21 [compound 832] | – | xxx (activity was measured to be less than 2.0 μM) | – | xxx (activity was measured to be less than 2.0 μM) | xx (efficacy was calculated to be between 100% and 25%) | xx (efficacy was calculated to be between 100% and 25%)
CC(=O)NC1CCC2(CCN(CCC3CCN(C(C)=O)CC3)CC2)c2ccccc21 (stereo not drawn) [compound 833] | 25 to 100% | xxx (activity was measured to be less than 2.0 μM) | 25 to 100% | xxx (activity was measured to be less than 2.0 μM) | – | –
CC(=O)N[C@H]1CC2(CCN(C34CCCCC3C4)CC2)c2ccccc21 (stereo partly drawn) [compound 834] | 25 to 100% | xxx (activity was measured to be less than 2.0 μM) | 25 to 100% | xxx (activity was measured to be less than 2.0 μM) | – | –
CCOC(=O)N1C2CCC1CC(N1CCC3(CC1)CC(=O)c1ccc(Cl)cc13)C2 (stereo not drawn) [compound 836] | 25 to 100% | xxx (activity was measured to be less than 2.0 μM) | 25 to 100% | xxx (activity was measured to be less than 2.0 μM) | – | –
COc1cccc(-c2cncc(N3CCC(N4CCC5(CC4)CN(C(C)=O)c4ccccc45)CC3)n2)c1 [compound 837] | < 25% | x (activity was measured to be greater than 5.0 μM) | < 25% | x (activity was measured to be greater than 5.0 μM) | – | –
CCOC(=O)N1CCC(N2CCC3(CC2)CN(c2cccc(OC)c2)c2ccc(F)cc23)CC1 [compound 838] | 25 to 100% | xxx (activity was measured to be less than 2.0 μM) | 25 to 100% | xxx (activity was measured to be less than 2.0 μM) | – | –
